Test results taken from patent US12398139B2, “Modulators of AMPA receptor signaling” (Centre for Addiction and Mental Health, priority 2019, dated 2025).

Columns and labels:
[1] = tested on: HEK-293 cells expressing GAPDH and GluR2; assay: AMPA mediated cell-death assay (CellTox Green Cytotoxicity Assay); assay type: cell-based; settings: Homo sapiens, HEK293, AMPA 500 μM, CTZ 100 μM, CellTox Green fluorescence, read-out: Potency, inhibition of AMPA-mediated neurotoxicity (IC50, concentration at which 50% of cell death was prevented)
Protocol: The ability of compounds to inhibit AMPA-mediated neurotoxicity was determined using the CellTox™ Green Cytotoxicity Assay (G8743) kit from Promega. In this assay, GAPDH and GluR2 are expressed in HEK-293 cells. AMPA (500 μM) was added to induce an AMPAR-mediated cell death signalling cascade. This is initiated by the GAPDH-GluR2 complex formation followed by the nuclear translocation of the complex, where it activates the p53-mediated cell death pathway. The presence of a compound which can block dimerization of GAPDH and GluR2 will prevent the nuclear translocation and the cell death and, thus this assay is an effective measure of the ability of a compound to prevent AMPA-mediated neurotoxicity and thus show therapeutic benefit in the treatment of MS.
The assay was performed as per the manufacture's instruction. Briefly, 293 cells stably expressing GluR1 and GluR2VENUS were transfected with pcDNA-RluC-GAPDH. AMPA (500 μM) were added to induce the cell death. CTZ (100 μM) was added to prevent AMPAR desensitization. Candidate molecules were added before the AMPA treatment to test its protective effect. Untreated cells and AMPA treated group were used as negative and positive control respectively. CellTox™ Green Reagent (˜5×) was then added to achieve a final concentration of 1× and cells were incubated at room temperature for 15 minutes (shielded from ambient light). The fluorescence intensity at 485-500 nmEx/520-530 nmEm was then measured and calculated as the percentage value of the positive control. The concentration at which 50% of cell death was prevented (IC50) was determined for each compound.
The potency was measured using the cell death assay described above.

[2] = target: T1, GluR2/GAPDH complex (Homo sapiens, UniProt P42262); assay: Surface plasmon resonance target engagement assay (competitive GluR2-Venus affinity with GAPDH); settings: SPR, captured GluR2-VENUS, 100 nM GAPDH peptide, compound top concentration 10 μM; read-out: Potency, GluR2 Binding Affinity (competitive inhibition of GluR2-GAPDH interaction)
T1 construct: host or cells: HEK293 cells stably transfected with GluR2-VENUS (lysate)
T1 sequence (P42262 25-883, species assumed, one chain of several): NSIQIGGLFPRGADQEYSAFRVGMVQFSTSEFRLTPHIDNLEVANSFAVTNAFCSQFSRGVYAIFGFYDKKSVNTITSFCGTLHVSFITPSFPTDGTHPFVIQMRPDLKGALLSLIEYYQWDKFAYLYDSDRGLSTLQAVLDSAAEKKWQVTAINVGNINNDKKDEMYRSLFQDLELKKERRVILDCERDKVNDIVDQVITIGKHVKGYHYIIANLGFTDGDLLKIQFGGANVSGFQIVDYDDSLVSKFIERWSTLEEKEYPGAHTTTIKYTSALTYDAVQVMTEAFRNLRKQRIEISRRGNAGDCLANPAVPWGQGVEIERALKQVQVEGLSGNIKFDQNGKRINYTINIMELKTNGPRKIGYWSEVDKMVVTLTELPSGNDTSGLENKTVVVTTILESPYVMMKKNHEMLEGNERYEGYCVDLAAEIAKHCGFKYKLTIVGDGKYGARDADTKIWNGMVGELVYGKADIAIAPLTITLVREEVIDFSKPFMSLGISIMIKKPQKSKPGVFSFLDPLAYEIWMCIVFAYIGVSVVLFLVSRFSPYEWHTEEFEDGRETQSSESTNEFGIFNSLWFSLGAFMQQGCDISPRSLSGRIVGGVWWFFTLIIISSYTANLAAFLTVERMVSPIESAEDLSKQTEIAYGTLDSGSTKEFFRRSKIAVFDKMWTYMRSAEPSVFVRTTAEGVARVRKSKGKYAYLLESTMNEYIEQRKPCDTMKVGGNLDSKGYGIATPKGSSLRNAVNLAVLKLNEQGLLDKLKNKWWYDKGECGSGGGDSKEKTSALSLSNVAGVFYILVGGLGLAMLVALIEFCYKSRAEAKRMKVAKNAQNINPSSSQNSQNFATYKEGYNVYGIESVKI
Protocol: This is one of the most commonly used techniques to study modulation of protein-protein interactions by small molecule ligands, providing real-time measurement of binding affinities and association/dissociation kinetics of complexes (compound/protein) in a label-free environment. The ability of our lead compound to disrupt the interaction of GluR2/GAPDH complex was measured by the binding affinity. Compounds were analyzed for competitive GluR2-Venus protein affinity (with GAPDH recombinant protein) using a Reichert 2SPR system. The surface was first charged with nickel (500 μM NiCl2 in HBS-P buffer for 300 s at a flow rate of 5 μL/min). The dextran surface was then activated with a 1:1 mixture of N-ethyl-N-dimethylaminopropylcarbodiimide (EDC) and N-hydroxysuccinimide (NHS) on line for final concentrations of EDC and NHS of 37.5 mg/mL and 5.8 mg/mL, respectively, for 420 s at a flow rate of 25 μL/min. Anti-VENUS antibody was first immobilized by capture onto a 500 KDa CM Dextran sensor chip (Reichert), proceeded by activation of the carboxymethylated dextran surface for mild amine coupling, followed by a final blocking injection of 1 M ethanolamine, pH 8.5. GluR2-VENUS (lysate of HEK293 cells stably transfected with GluR2-VENUS) was then captured for 900 s at a flow rate of 25 μL/min followed by a final blocking injection of 2% BSA, for 300 s at a flow rate of 5 μL/min.
The surface plasmon resonance affinity assay was carried out in a PBS buffer consisting of 0.05% Tween 20. For affinity measurements, compound solutions were prepared using ten three-fold serial dilutions in running buffer from a 10 μM top concentration (prepared from DMSO stocks) along with a zero (running buffer) control, mixed with 100 nM GAPDH peptide (Sigma Aldrich). A flow rate of 30 μl/min was used with a 420 s contact time (using high performance injection parameters) followed by a 120 s dissociation phase. Results were analyzed by subtracting the signals of the reference surface from the signals for the protein-bound surfaces and performing a solvent correction. Competitive binding responses were normalized throughout the screen to the percentage of inhibition of the respective small molecule compound. Three independent experiments were performed.
The binding affinity was measured using the surface plasmon resonance assay described above.

[3] = tested on: EAE mice; assay: Experimental autoimmune encephalomyelitis (EAE) model for multiple sclerosis; assay type: in vivo, mice (C57BL/6)
[4] = Human liver microsomal stability assay; assay type: in vitro ADME; settings: both sexes, pooled human liver microsomes, pH 7.4; human liver microsomes 0.5 mg/mL, 3 μM compound, NADPH, 37° C., 45 min; read-out: T1/2, human liver microsomal stability
Protocol: (§1) Metabolic stability of 2-pyrrolopyrazoles derivatives was measured by determination of the rate of compound disappearance when incubated in the presence of human or rat liver microsomes. Liver microsomes are prepared from the endoplasmic reticulum of hepatocytes and are the primary source of the most important enzymes (cytochrome P450) involved in drug metabolism. Study of drug stability in the presence of liver microsomes is accepted as a valuable model permitting rapid prediction of in vivo drug stability.
(§2) Human or rat liver microsomes were obtained from a commercial source. Test compounds (3 μM) were incubated with pooled liver microsomes (male and female). Samples were incubated for a 45 minute period and removed at 5 time points and test compounds were analyzed by LC-MS/MS
(§3) Microsomes (final protein concentration 0.5 mg/mL), 0.1 M phosphate buffer pH 7.4, and test compound (final concentration 3 μM; diluted from 10 mM stock solution to give a final DMSO concentration of 0.25%) were incubated at 37° C. prior to the addition of NADPH (final concentration 1 mM) to initiate the reaction. The final incubation volume was 25 μL. A control incubation was included for each compound tested, where 0.1 M phosphate buffer pH 7.4 was added instead of NADPH. The control compounds testosterone and 7-hydroxycoumarin were included in each experiment and all incubations were performed singularly for each compound.
(§4) Each compound was incubated for 0, 5, 15, 30, and 45 minutes. The control (minus NADPH) was incubated for 45 minutes only. The reactions were stopped by the addition of 50 μL methanol containing internal standard at the appropriate time points. The incubation plates were centrifuged at 2500 rpm for 20 minutes at 4° C. to precipitate the protein.
(§5) Following protein precipitation, the sample supernatants were combined in cassettes of up to 4 compounds and analysed using standard LC-MS/MS conditions.
(§6) From a plot of the natural logarithm of the peak area ratio (i.e., the ratio of compound peak area: internal standard peak area) against time, the gradient of the line was determined. Subsequently, half-life and intrinsic clearance were calculated using the equations below: Eliminated rate constant (k)=(−gradient). Half-life (t1/2) (min)=[…]. Intrinsic Clearance (CLint) (μL/min/[…])=(V×0.693)/t1/2. wherein V=Incubation volume (μL/mg microsomal protein).
(§7) Biological half-life values (t1/2) were determined for several 2-pyrrolopyrazoles, as well as the closely-related reference 1-pyrrolopyrazole, using the human liver microsomal stability assay described above.

[5] = Rat liver microsomal stability assay; assay type: in vitro ADME; settings: both sexes, pooled rat liver microsomes, pH 7.4; rat liver microsomes 0.5 mg/mL, 3 μM compound, NADPH, 37° C., 45 min; read-out: T1/2, rat liver microsomal stability
Protocol: as §1, §2, §3, §4, §5, §6, §7

| IC50 [2] [µM] | half-life at 3 μM [4] [min] | half-life at 3 μM [5] [min] | SMILES | IC50 [1] [µM] | mean clinical score compared with the no treatment group ([3]; 5 or 10 mg/kg i.p. daily from day 11~12, two-way ANOVA at least P<0.05) | neurological function ([3]; i.p. administration from day 11~12 after immunization (1~2 days after symptoms)) |
| --- | --- | --- | --- | --- | --- | --- |
| 0.0004 |  |  | CN(C)C(=O)c1cncc(N2Cc3cn(Cc4ccc(F)cc4)nc3C2)n1 [Compound 155, 6-(2-(4-Fluorobenzyl)-2,6-dihydropyrrolo[3,4-c]pyrazol-5(4H)-yl)-N,N-dimethylpyrazine-2-carboxamide] | 0.035 | significantly lower | greatly improves neurological function |
|  | 8 | < 1 | CN(C(=O)c1cncc(N2Cc3cn(Cc4ccc(F)cc4)nc3C2)n1)C1CCCC1 [Compound 228, N-Cyclopentyl-6-(2-(4-fluorobenzyl)-2,6-dihydropyrrolo[3,4-c]pyrazol-5(4H)-yl)-N-methylpyrazine-2-carboxamide] | 0.042 |  |  |
